Experimental data from paper PMC9516332 (Frontiers in Oncology, 2022).

Assays:
Experiment in all cases: Kinase panel profiling at 1 µmol/L (MSA or IMAP), percentage inhibition
Type in all cases: biochemical
[1] = target: T1, panel of 255 wild-type kinases (Homo sapiens, UniProt O00418); conditions: kinase EEF2K; 1 µmol/L single concentration; read-out: %-inhibition at 1 µmol/L, EEF2K
T1 sequence (O00418 1-725): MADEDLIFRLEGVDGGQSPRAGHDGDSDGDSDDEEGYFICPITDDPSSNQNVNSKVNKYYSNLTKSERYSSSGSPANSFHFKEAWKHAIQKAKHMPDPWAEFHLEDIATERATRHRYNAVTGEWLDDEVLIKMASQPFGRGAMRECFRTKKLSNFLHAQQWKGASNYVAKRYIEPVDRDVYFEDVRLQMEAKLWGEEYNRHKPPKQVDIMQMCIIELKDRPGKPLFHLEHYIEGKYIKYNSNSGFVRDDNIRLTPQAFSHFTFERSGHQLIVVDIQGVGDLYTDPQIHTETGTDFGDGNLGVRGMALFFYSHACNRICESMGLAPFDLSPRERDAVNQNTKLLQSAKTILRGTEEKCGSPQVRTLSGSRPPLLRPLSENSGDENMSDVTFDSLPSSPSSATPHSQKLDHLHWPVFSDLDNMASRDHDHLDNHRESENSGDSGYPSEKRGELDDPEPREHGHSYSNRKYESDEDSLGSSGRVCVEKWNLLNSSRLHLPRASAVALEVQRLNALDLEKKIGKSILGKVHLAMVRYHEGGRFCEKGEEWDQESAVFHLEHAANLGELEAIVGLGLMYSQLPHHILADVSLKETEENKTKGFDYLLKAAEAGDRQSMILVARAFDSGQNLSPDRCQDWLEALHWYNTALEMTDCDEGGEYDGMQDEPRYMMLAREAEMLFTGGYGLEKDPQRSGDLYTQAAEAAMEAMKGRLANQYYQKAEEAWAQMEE

[2] = target: T2, panel of 255 wild-type kinases (Homo sapiens, UniProt Q8IW41); conditions: MAPKAPK5; 1 µmol/L single concentration; read-out: %-inhibition, MAPKAPK5
T2 sequence (Q8IW41 1-473): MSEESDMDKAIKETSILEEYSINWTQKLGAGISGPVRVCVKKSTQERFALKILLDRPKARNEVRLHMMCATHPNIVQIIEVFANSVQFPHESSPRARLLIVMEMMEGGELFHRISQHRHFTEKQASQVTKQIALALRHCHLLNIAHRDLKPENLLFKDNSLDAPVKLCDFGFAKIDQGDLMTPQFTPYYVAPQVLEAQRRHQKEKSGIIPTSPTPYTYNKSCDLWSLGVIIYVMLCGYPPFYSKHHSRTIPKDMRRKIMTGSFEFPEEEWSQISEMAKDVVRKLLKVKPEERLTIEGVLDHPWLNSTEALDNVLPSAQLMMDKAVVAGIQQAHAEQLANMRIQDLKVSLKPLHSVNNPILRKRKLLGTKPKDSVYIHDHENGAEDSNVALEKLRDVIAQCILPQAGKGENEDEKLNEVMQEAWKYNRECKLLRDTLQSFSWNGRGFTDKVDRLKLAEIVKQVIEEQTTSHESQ

[3] = target: panel of 255 wild-type kinases (Homo sapiens, UniProt P16591); conditions: kinase FER; 1 µmol/L single concentration; read-out: %-inhibition at 1 µmol/L, FER
[4] = target: panel of 255 wild-type kinases (Homo sapiens, UniProt P22694); conditions: kinase PKACβ; 1 µmol/L single concentration; read-out: %-inhibition at 1 µmol/L, PKACβ
[5] = target: panel of 255 wild-type kinases (Homo sapiens, UniProt Q9UK32); conditions: kinase RSK4; 1 µmol/L single concentration; read-out: %-inhibition at 1 µmol/L, RSK4
[6] = target: panel of 255 wild-type kinases (Homo sapiens, UniProt P51812); conditions: kinase RSK2; 1 µmol/L single concentration; read-out: %-inhibition at 1 µmol/L, RSK2
[7] = target: panel of 255 wild-type kinases (Homo sapiens, UniProt O43683); conditions: BUB1/BUB3 kinase assay; 1 µmol/L single concentration; read-out: %-inhibition BUB1/BUB3
[8] = target: panel of 255 wild-type kinases (Homo sapiens, UniProt P14616); conditions: kinase IRR; 1 µmol/L single concentration; read-out: %-inhibition at 1 µmol/L, IRR
[9] = target: panel of 255 wild-type kinases (Homo sapiens, UniProt Q9H4B4); conditions: kinase PLK3; 1 µmol/L single concentration; read-out: %-inhibition at 1 µmol/L, PLK3
[10] = target: panel of 255 wild-type kinases (Homo sapiens, UniProt Q9Y5S2); conditions: MRCKβ; 1 µmol/L single concentration; read-out: %-inhibition, MRCKβ
[11] = target: panel of 255 wild-type kinases (Homo sapiens, UniProt Q5VT25); conditions: MRCKα; 1 µmol/L single concentration; read-out: %-inhibition, MRCKα
[12] = target: panel of 255 wild-type kinases (Homo sapiens, UniProt P21802); conditions: kinase FGFR2; 1 µmol/L single concentration; read-out: %-inhibition at 1 µmol/L, FGFR2

SMILES	inhibition at 1 µM [1] [%]	inhibition at 1 µM [2] [%]	inhibition at 1 µM [3] [%]	inhibition at 1 µM [4] [%]	inhibition at 1 µM [5] [%]	inhibition at 1 µM [6] [%]	inhibition at 1 µM [7] [%]	inhibition at 1 µM [8] [%]	inhibition at 1 µM [9] [%]	inhibition at 1 µM [10] [%]	inhibition at 1 µM [11] [%]	inhibition at 1 µM [12] [%]
Cc1nc(NC(=O)N2CCC[C@H]2C(N)=O)sc1-c1ccnc(C(C)(C)C(F)(F)F)c1 [alpelisib]	2	-2.15	-1.86	-20	-4	-1.78	-4.62	7	1.89	-7	-2	7
C=CC(=O)N1CCC([C@@H]2CCNc3c(C(N)=O)c(-c4ccc(Oc5ccccc5)cc4)nn32)CC1 [zanubrutinib]	0.514	-3.6	0.0146	-8	-6	-6	-6	2.69	-4.39	-1.23	-0.931	2.54
COC(=O)N[C@@H](C)CNc1nccc(-c2cn(C(C)C)nc2-c2cc(Cl)cc(NS(C)(=O)=O)c2F)n1 [encorafenib]	1	-4	5	9.51	4.58	3.78	6	-3.65	0.929	1.73	0.0684	4
CCc1nc(C(N)=O)c(Nc2ccc(N3CCC(N4CCN(C)CC4)CC3)c(OC)c2)nc1NC1CCOCC1 [gilteritinib]	-2.72	-0.923	99	22	44	48	54	100	2.59	47	12	61
COc1cc2ncnc(Nc3ccc(F)c(Cl)c3)c2cc1NC(=O)/C=C/CN1CCCCC1 [dacomitinib]	0	-4.47	6.35	6	16	8	22	6	3.6	8	4.59	16
Cn1cc(-c2cc3c(N4CCN(c5ncc([C@@](C)(N)c6ccc(F)cc6)cn5)CC4)ncnn3c2)cn1 [avapritinib]	-1.21	2	1.71	-19	7.6	2.57	4	2.37	5.69	12	4	62
CCn1c(=O)c(-c2cc(NC(=O)Nc3ccccc3)c(F)cc2Br)cc2cnc(NC)cc21 [ripretinib]	-2	-3.71	32	-3.65	0.401	3.31	2.76	4.5	4	-1.41	-1.14	72
